Source: BindingDB's records for doi:10.1021/cc990074a (Ariad Pharmaceuticals, 2000)

Target: Proto-oncogene tyrosine-protein kinase Src (Homo sapiens)
Assay: Compounds were tested for binding to Src SH2 using a fluorescence polarization binding assay according to methods previously described. IC50 values were assigned to individual compounds according to their competitive binding affinity versus a high-affinity peptide probe, fluorescein-pTyr-pTyr-pTyr-Ile-Glu-NH2.

Structure (SMILES)	IC50 [µM]
COc1ccc(C(C)NC(=O)C(Cc2ccc(OP(=O)(O)O)cc2)NC(C)=O)cc1C(N)=O (stereo not drawn) [Src SH2 inhibitor, 1b]	37
NC(=O)c1cc(CNC(=O)c2ccc(OP(=O)(O)O)cc2)ccc1OCC1CCCCC1 [Src SH2 inhibitor, 3]	6.5
O=C(NCc1ccc(OCC2CCCCC2)cc1)c1ccc(OP(=O)(O)O)cc1 [Src SH2 inhibitor, 4]	> 100
